Assay [1] relates to U20S-IC6 cells. Nature of the assay: Lo-Q platform assay (CAG repeat expansion in a clonal cell line with tetracycline-regulated exon 1 HTT ~100 CAG / nanoluc). The assay is classed as cell-based. The note with it: 336 h, 2-week assay with tetracycline pulsing, read-out: Minimum effective concentration (MEC). The text has this: The cell line that was used in the assay below was generated as follows:
The pcDNA™4/TO vector contains two tetracycline operator 2 (TetO2) sites within the human cytomegalovirus immediate-early (CMV) promoter for tetracycline regulated expression of your gene of interest (Yao et al., 1998). The TetO2 sequences serve as binding sites for four Tet repressor molecules (comprising two Tet repressor homodimers) and confer tetracycline-responsiveness to the gene of interest. In the absence of tetracycline, expression of your gene of interest is repressed by the binding of Tet repressor homodimers to the TetO2 sequences. Addition of tetracycline to the cells de-represses the hybrid CMV/TetO2 promoter in pcDNA™4/TO and allows expression of your gene of interest. The pcDNA™6/TR regulatory plasmid is designed for use with the T-REx™ System for tetracycline-regulated expression of the gene of interest in mammalian cells. (www.lifetechnologies.com).
The expression sequence comprises exon 1 huntingtin with ~100 pure CAG repeats, a P2A self-cleaving peptide and a nanoluc sequence followed by a polyA signal. Full plasmid sequence is indicated (Seq ID NO:3). The plasmid contains sequences for ampicillin (bacterial propagation) and zeocin (mammalian cell lines) resistance.
The U-2 OS cell line (purchased from LGC standards, ATCC) is derived from a moderately differentiated sarcoma from the tibia of an adolescent person. Karyotyping has shown that although there are a lot of chromosomal abnormalities the tumour suppressor genes p53 and pRb are still fully functional in the U2OS cell line.
Routine culture of the adherent cells in non-PDL plastic ware in a humidified 37°C incubator with 5% CO2. Cells were maintained in McCoy's 5A (modified) medium with GlutaMAX supplement (Life Technologies 3660-021) and tetracycline-free FBS (Clontech 631106). Maintenance medium for the clonal cell lines expressing Tet repressor and exon 1 HTT/nanoluc constructs were additionally supplemented with zeocin to 100 ug/ml and blasticidin to 1.25 ug/ml. Cells were passaged at 70-80% confluence once or twice a week, either to a split ratio or defined seeding density using DPBS and TrypLE express enzyme (1x, no phenol red, Life technologies 12604-039) was used to dissociate the cells. Cells were frozen with Cell Banker (AMSBIO 11891) or with medium plus 10% DMSO and stored in liquid nitrogen vapour phase.
Stable, clonal cell lines (e.g. 1C6) are leveraged either identify potential druggable targets, and to assess the effectiveness of therapeutic compounds against a Huntington's disease, by way of quantifying CAG repeats expansion rates.
• Place a vial of the cell line U20S-IC6 (1-2×10^6 cells/mL), produced as described above, in a water bath at 37°C for 30 s. Once thawed, quickly transfer the cells into a 15 mL falcon tube containing 9 mL of McCoys 5A media, supplemented with 10% Tet-free FBS. • Pellet the cells by centrifugation at 300 x g for 5 m and discard the supernatant. • Resuspend the cell pellet in 10 mL fresh media and transfer to a sterile T75 culture flask. • Inspect the culture after 24 h and maintain the cells below 80% confluency, typically passaging every 3-4 days.
The Lo-Q platform has been optimised to run as a 2-week assay, following the standard processes detailed in the schematic in Figure 1A.
• Cell seeding for Lo-Q platform assays should be initiated on Mondays (am) to ensure Tetracycline pulsing can be maintained every other day. • The Friday prior to initiating any Lo-Q platform assay ensure there are sufficient cells in culture to seed the required number of assay plates. If required, passage the cells, otherwise perform a media change to McCoys 5A, 10% Tet-free FBS, 1.25 µg/mL Blasticidin®, and 100 µg/mL Zeocin®. • On the Monday morning, aspirate the media from the required number of culture flasks containing U20S-IC6 cells and wash with 2 mL PBS. • Aspirate the PBS and add 2 mL 0.25% Trypsin EDTA. […]

The target of assay [2] is T1, MutSβ (Homo sapiens, UniProt P20585+P43246).
T1 construct: purchased AMRI
T1 sequence (P43246 whole entry): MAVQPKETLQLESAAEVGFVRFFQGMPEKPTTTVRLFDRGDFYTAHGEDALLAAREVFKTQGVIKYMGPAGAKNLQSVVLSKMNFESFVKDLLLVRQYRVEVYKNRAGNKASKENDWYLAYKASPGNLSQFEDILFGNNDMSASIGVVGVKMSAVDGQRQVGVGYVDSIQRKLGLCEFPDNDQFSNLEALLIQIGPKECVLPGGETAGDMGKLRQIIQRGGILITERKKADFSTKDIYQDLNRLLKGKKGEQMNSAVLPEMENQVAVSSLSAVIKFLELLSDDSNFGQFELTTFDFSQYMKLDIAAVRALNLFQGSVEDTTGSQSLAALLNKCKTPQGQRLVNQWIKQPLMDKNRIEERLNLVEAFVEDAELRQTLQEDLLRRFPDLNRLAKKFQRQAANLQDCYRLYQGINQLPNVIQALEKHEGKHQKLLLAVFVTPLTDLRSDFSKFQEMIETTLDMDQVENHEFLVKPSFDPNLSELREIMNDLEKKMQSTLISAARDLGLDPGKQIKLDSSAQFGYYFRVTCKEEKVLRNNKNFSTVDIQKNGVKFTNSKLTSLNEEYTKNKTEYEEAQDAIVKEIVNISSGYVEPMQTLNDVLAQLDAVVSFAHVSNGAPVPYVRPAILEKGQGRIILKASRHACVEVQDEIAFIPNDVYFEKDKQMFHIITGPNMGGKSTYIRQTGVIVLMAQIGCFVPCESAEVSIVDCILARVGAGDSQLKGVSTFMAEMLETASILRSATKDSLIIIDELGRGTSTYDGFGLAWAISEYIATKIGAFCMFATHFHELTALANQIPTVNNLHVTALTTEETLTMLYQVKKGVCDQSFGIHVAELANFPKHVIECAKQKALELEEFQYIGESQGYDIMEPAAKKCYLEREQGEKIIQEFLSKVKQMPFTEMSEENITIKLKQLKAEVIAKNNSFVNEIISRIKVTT
T1 sequence (P20585 whole entry): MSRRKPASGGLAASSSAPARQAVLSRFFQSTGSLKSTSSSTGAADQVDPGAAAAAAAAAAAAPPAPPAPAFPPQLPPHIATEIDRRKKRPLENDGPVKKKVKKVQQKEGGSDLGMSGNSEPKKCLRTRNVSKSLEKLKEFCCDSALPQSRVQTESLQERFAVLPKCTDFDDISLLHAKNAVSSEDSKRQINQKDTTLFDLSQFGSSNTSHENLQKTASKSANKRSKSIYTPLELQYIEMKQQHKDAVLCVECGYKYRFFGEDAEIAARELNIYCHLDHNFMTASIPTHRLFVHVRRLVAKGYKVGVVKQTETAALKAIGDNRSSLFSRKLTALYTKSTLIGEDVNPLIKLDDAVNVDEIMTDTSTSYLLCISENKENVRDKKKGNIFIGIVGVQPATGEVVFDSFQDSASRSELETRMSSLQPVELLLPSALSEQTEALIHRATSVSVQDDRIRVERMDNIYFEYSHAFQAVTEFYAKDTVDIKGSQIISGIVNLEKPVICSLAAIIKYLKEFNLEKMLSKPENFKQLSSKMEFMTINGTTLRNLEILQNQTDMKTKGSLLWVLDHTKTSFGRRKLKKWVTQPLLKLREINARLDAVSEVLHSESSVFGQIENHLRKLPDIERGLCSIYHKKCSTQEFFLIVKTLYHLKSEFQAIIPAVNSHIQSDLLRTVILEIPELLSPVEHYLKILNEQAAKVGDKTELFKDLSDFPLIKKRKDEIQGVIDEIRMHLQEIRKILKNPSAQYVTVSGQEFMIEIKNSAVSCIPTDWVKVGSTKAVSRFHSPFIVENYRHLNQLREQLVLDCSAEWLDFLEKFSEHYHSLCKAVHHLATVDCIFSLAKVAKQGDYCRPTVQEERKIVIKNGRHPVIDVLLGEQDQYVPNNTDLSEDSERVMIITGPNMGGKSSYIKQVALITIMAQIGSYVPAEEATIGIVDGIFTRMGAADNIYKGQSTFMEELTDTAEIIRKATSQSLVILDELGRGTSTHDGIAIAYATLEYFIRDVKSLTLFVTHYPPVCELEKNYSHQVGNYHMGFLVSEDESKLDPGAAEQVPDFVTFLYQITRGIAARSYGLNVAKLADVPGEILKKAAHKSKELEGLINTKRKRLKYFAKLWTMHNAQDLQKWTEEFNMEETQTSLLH
Kind of assay: MutSβ ADP Glo Assay. The class given is biochemical. Conditions: 20nM MutSβ, 30nM CAG DNA, 25 µM ATP, 2 hours at room temperature. On the procedure: Biological Example A - MutSβ Assay
• MutSβ (supplied by AMRI) stored at -70°C • ADP Glo Kinase Assay Kit (Promega: V9102) stored at -20°C • ATP (supplied within the ADP Glo Kit) stored at -20°C • 1M KCI (Sigma Aldrich: P9333) stored at 2-8°C • 1 M HEPES pH 7.5 (Gibco: M15630-080) stored at 2-8°C • 1M MgCl2 (Sigma Aldrich: M1028-100mL) stored at 2-8°C • Tween-20 (Sigma Aldrich: P1379) (10% solution) stored at 2-8°C • 500mM DTT (Sigma Aldrich: 10197777001) stored at -20°C • CAG loop DNA for MutSβ (made in house) stored at -20°C • MilliQ water stored at room temperature
• 1. Prepare the buffer fresh each day • 2. Take the enzyme from the freezer, thaw in room temperature water and centrifuge at 13,000 rpm for 10 minutes at 2-8C, then make up enzyme and ATP stocks • 3. Quality Control the multidrop head to a %CV of <2% • 4. Add 3µL of 33.34nM MutSβ and 50.01nM CAG looped DNA solution […] to each well in columns 1 and 3-23 of the plate • 5. Pre-incubate the MutSβ and buffer mix for 10 minutes with the compounds • 6. Wash the multidrop head through with MilliQ water (for at least 30 seconds) • 7. Add 3µL of MutSβ Assay buffer (without enzyme) to columns 2 and 24 for the vehicle controls • 8. Wash the multidrop head through with MilliQ water (for at least 30 seconds) • 9. Add 2µL of 62.5µM ATP to each well of the whole plate, then wash with MilliQ water (for a minimum of 30 seconds) • 10. Centrifuge plate for 1 minute at 1000 rpm • 11. Incubate for 2 hours at room temperature • 12. Add 5µL of ADP Glo reagent to each well of the whole plate and wash the multidrop head with MilliQ water (for a minimum of 30 seconds) • 13. Incubate for 40 minutes at room temperature (minimum requirement) • 14. Add 10µL of Kinase Detection Reagent to each well of the whole plate • 15. Wash the multidrop head with MilliQ water more than 1 minute and then dry • 16. Remove the head and put the cover back on for overnight storage • 17. Incubate for 30 minutes at room temperature (minimum requirement) • 18. Read on a microplate reader

In EP4574817A1 (LoQus23 Therapeutics Limited, priority 2023, dated 2025) one finds minimal effective concentration and IC50 data, which are given here for 21 compounds.

For the compound `CNS(=O)(=O)OCC(=O)N(C)c1nc(C)c(Cc2cccc(Cl)c2)s1` [Example 1, 2-((5-(3-chlorobenzyl)-4-methylthiazol-2-yl)(methyl)amino)-2-oxoethyl methylsulfamate], the minimal effective concentration in assay [1] is at most 0.1 µM. Besides, in assay [2], the IC50 is at most 500 nM. For `CNS(=O)(=O)OCC(=O)Nc1nc(C)c(Cc2cccc(Br)c2)s1` [Example 10, 2-((5-(3-bromobenzyl)-4-methylthiazol-2-yl)amino)-2-oxoethyl methylsulfamate], in that order: 0.1 to 0.5 µM and at most 500 nM. The matching figures for `CNS(=O)(=O)OCC(=O)Nc1nc(C)c(Cc2ccc(Cl)c(Cl)c2)s1` [Example 12, 2-((5-(3,4-dichlorobenzyl)-4-methylthiazol-2-yl)amino)-2-oxoethyl methylsulfamate]: 0.5 to 1 µM and at most 500 nM. Turning to `CNS(=O)(=O)OCC(=O)Nc1nc(C)c(Cc2ccc(F)c(F)c2)s1` [Example 14, 2-((5-(3,4-difluorobenzyl)-4-methylthiazol-2-yl)amino)-2-oxoethyl methylsulfamate], the minimal effective concentration in assay [1] lay in the range of 0.1 to 0.5 µM. In assay [2], this compound displayed a half-inhibitory concentration (IC50) of 1000 to 10000 nM. For the compound `CCNS(=O)(=O)OCC(=O)Nc1nc(C)c(Cc2ccc(C)cc2)s1` [Example 15, 2-((4-methyl-5-(4-methylbenzyl)thiazol-2-yl)amino)-2-oxoethyl ethylsulfamate], the minimal effective concentration in assay [1] fell in the range of 0.5 to 1 µM. The IC50 in assay [2] is 1000 to 10000 nM. With `CNS(=O)(=O)OCC(=O)Nc1nc(C)c(Cc2cccc(Cl)c2)s1` [Example 19, 2-((5-(3-chlorobenzyl)-4-methylthiazol-2-yl)amino)-2-oxoethyl methylsulfamate], the minimal effective concentration in assay [1] is at most 0.1 µM. Further, the IC50 in assay [2] lay in the range of 500 to 1000 nM. As to `CNS(=O)(=O)OCC(=O)Nc1nc(C)c(Cc2cccc3ccccc23)s1` [Example 48, 2-((4-methyl-5-(naphthalen-1-ylmethyl)thiazol-2-yl)amino)-2-oxoethyl methylsulfamate], the IC50 in assay [2] was 10000 to 50000 nM.

`Cc1nc(NC(=O)COS(=O)(=O)NCCF)sc1Cc1cccc(Cl)c1` [Example 49, 2-((5-(3-chlorobenzyl)-4-methylthiazol-2-yl)amino)-2-oxoethyl (2-fluoroethyl)sulfamate]: the IC50 in assay [2] fell in the range of 500 to 1000 nM. In the case of `CNS(=O)(=O)OCC(=O)Nc1nc(COC2CCN(C)CC2)c(Cc2cccc(Cl)c2)s1` [Example 50, 2-((5-(3-chlorobenzyl)-4-(((1-methylpiperidin-4-yl)oxy)methyl)thiazol-2-yl)amino)-2-oxoethyl methylsulfamate], the IC50 in assay [2] was in the range of 10000 to 50000 nM. Turning to `CNS(=O)(=O)OCC(=O)Nc1nc(CO)c(Cc2ccc(C)cc2)s1` [Example 51, 2-((4-(hydroxymethyl)-5-(4-methylbenzyl)thiazol-2-yl)amino)-2-oxoethyl methylsulfamate], the IC50 in assay [2] fell in the range of 10000 to 50000 nM.

In turn, `CNS(=O)(=O)OCC(=O)Nc1nc(C)c(C(C)(C)c2cccc(Cl)c2)s1` [Example 52, 2-((5-(2-(3-chlorophenyl)propan-2-yl)-4-methylthiazol-2-yl)amino)-2-oxoethyl methylsulfamate] showed an IC50 in assay [2] of 10000 to 50000 nM. Same read-out and setting: the figure for `CNS(=O)(=O)OCC(=O)Nc1nc(C)c(Cc2cccc(Cl)c2F)s1` [Example 53, 2-((5-(3-chloro-2-fluorobenzyl)-4-methylthiazol-2-yl)amino)-2-oxoethyl methylsulfamate] is 1000 to 10000 nM.

In assay [2], `CNS(=O)(=O)OCC(=O)Nc1nc(C)c(Cc2cc(F)cc(Cl)c2)s1` [Example 54, 2-((5-(3-chloro-5-fluorobenzyl)-4-methylthiazol-2-yl)amino)-2-oxoethyl methylsulfamate] came in with an IC50 of 1000 to 10000 nM. Regarding `CNS(=O)(=O)OCC(=O)Nc1nc(C)c(Cc2cc(Cl)ccc2F)s1` [Example 55, 2-((5-(5-chloro-2-fluorobenzyl)-4-methylthiazol-2-yl)amino)-2-oxoethyl methylsulfamate], in assay [2], the IC50 lay within 1000 to 10000 nM. Compound `CNS(=O)(=O)OCC(=O)Nc1nc(C=O)c(Cc2cccc(Cl)c2)s1` [Example 56, 2-((5-(3-chlorobenzyl)-4-formylthiazol-2-yl)amino)-2-oxoethyl methylsulfamate] showed an IC50 in assay [2] of 1000 to 10000 nM. `CCN(C(=O)COS(=O)(=O)NC)c1nc(C)c(Cc2cccc(Cl)c2)s1` [Example 57, 2-((5-(3-chlorobenzyl)-4-methylthiazol-2-yl)(ethyl)amino)-2-oxoethyl methylsulfamate]: the IC50 in assay [2] was 500 to 1000 nM. On the same count and under the same terms, the figure for `CNS(=O)(=O)OCC(=O)Nc1nc(CN2CCOCC2)c(Cc2cccc(Cl)c2)s1` [Example 58, 2-((5-(3-chlorobenzyl)-4-(morpholinomethyl)thiazol-2-yl)amino)-2-oxoethyl methylsulfamate] is 10000 to 50000 nM.

For the compound `CNS(=O)(=O)OCC(=O)N(C)c1nc(C)c(Cc2ccc(Cl)c(Cl)c2)s1` [Example 59, 2-((5-(3,4-dichlorobenzyl)-4-methylthiazol-2-yl)(methyl)amino)-2-oxoethyl methylsulfamate], the IC50 in assay [2] was at most 500 nM. In turn, `CNC(=O)OCc1nc(NC(=O)COS(=O)(=O)NC)sc1Cc1cccc(Cl)c1` [Example 60, 2-((5-(3-chlorobenzyl)-4-(((methylcarbamoyl)oxy)methyl)thiazol-2-yl)amino)-2-oxoethyl methylsulfamate] returned an IC50 in assay [2] of 1000 to 10000 nM. On the same count and under the same terms, the figure for `CNS(=O)(=O)OCC(=O)Nc1nc(C)c(Oc2cccc(Cl)c2)s1` [Example 61, 2-((5-(3-chlorophenoxy)-4-methylthiazol-2-yl)amino)-2-oxoethyl methylsulfamate] is 500 to 1000 nM; for `CNS(=O)(=O)OCC(=O)Nc1nc2c(s1)C(c1cccc(Cl)c1)CCC2` (stereo not drawn) [Example 62, 2-((7-(3-chlorophenyl)-4,5,6,7-tetrahydrobenzo[d]thiazol-2-yl)amino)-2-oxoethyl methylsulfamate] it is at most 500 nM.

In general, IC50 refers to the concentration at which inhibition is half-maximal. A higher IC50 goes with weaker potency.
